# Laboratory results reported in US10745400B2, “Inhibition of BMP signaling, compounds, compositions and uses thereof” (Vanderbilt University, priority 2018, dated 2020).
# Read-outs that look alike come from different tables or passages of the source.
# Legend:
# ALK2/ACVR1 = target: T1, ALK2/ACVR1 (Homo sapiens, UniProt Q04771); assay: Kinase assay (33P-ATP filter-binding), ALK2; type: biochemical; settings: 20 mM; read-out: Kinase Selectivity ALK2/ACVR1 (20 mM)
# T1 sequence (Q04771 21-509): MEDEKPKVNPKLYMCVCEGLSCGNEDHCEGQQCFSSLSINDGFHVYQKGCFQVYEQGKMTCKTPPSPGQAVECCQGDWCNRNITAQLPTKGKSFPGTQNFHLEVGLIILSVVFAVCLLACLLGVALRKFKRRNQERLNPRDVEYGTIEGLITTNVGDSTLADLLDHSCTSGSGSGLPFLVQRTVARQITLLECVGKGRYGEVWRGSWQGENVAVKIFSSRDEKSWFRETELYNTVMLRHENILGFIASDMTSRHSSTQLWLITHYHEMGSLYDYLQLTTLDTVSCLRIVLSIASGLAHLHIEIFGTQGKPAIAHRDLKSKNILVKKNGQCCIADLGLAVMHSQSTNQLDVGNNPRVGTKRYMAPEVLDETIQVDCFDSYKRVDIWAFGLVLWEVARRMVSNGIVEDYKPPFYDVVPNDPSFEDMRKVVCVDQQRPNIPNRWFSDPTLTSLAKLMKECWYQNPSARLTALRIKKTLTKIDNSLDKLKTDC
# How it was run: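 Radiometric 33P-ATP turnover captured on P81 paper following a 2 h room-temperature reaction. Compounds were preincubated with enzyme and substrate for 20 min in pH 7.5 Hepes buffer containing 1% DMSO.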
# ALK5 = target: T2, ALK5 (Homo sapiens, UniProt P36897); assay: Kinase assay (33P-ATP filter-binding), ALK5; type: biochemical; settings: read-out: Kinase Selectivity ALK5
# T2 sequence (P36897 34-503): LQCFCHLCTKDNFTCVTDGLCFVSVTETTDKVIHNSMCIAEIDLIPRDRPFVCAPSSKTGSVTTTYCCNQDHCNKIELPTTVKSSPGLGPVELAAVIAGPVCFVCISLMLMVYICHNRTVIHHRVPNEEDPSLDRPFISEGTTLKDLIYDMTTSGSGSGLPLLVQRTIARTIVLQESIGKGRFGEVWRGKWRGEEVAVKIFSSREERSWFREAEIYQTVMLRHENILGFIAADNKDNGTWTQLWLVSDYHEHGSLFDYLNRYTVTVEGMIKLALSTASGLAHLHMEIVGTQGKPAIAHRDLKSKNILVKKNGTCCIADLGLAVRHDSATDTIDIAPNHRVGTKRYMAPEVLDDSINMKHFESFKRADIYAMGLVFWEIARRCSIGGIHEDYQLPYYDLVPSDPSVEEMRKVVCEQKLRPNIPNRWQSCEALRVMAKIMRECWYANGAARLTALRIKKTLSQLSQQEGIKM
# Description: (§1) The kinase assays were carried out briefly as follows. Substrate was prepared in Base Reaction Buffer (20 mM Hepes (pH 7.5), 10 mM MgCl2, 1 mM EGTA, 0.02% Brij35, 0.02 mg/ml BSA, 0.1 mM Na3VO4, 2 mM DTT, 1% DMSO). The indicated kinases was delivered into the substrate solution and allowed to gently mix. Next, the specific compound was delivered in DMSO into the kinase mixture by Acoustic technology (Echo550; nanoliter range), and allowed to incubate for 20 minutes at room temperature. Next, ^33P-ATP was delivered into the reaction mixture to initiate the reaction and allowed to incubate at room temperature. After 2 hours, the reactions were spotted onto P81 ion exchange paper and the kinase activity is detected by the filter-binding method.
# BMPR2 = target: T3, BMPR2 (Homo sapiens, UniProt Q13873); assay: Kinase assay (33P-ATP filter-binding), BMPR2; type: biochemical; settings: read-out: Kinase Selectivity BMPR2
# T3 sequence (Q13873 27-1038): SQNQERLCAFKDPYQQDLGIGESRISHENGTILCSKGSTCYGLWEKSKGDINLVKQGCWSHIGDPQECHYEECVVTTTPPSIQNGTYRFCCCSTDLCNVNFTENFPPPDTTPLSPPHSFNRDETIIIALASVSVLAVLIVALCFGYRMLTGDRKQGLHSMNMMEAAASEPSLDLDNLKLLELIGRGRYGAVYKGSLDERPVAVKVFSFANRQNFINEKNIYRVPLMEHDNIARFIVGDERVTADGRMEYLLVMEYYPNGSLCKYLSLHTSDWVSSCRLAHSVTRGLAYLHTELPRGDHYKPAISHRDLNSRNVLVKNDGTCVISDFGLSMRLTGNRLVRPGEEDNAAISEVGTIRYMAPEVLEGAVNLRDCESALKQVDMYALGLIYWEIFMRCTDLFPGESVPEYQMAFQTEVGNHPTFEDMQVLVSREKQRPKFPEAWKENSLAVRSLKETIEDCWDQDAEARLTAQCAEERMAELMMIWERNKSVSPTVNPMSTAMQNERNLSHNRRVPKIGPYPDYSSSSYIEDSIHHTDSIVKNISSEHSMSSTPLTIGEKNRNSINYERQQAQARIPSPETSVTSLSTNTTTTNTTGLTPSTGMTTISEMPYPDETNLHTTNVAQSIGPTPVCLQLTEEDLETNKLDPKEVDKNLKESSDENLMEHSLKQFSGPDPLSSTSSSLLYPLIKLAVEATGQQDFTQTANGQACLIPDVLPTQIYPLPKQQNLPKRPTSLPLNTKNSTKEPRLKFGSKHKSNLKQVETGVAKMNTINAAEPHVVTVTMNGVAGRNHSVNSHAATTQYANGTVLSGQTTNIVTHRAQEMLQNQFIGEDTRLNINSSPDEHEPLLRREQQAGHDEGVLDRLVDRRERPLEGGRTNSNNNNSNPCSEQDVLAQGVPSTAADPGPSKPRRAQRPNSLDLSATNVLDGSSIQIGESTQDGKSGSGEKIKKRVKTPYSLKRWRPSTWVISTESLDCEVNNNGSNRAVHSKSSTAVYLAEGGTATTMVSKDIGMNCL
# Description: as §1
# [1] = Intrinsic clearance, human; type: in vitro ADME; settings: human
# Protein binding, mouse = type: in vitro ADME
# [2] = CL-Hep, value in parentheses, read-out: Intrinsic Clearance Human (CL-Hep)
# [3] = read-out: Intrinsic Clearance Human
SMILES,IC50 (ALK2/ACVR1) [nM],IC50 (ALK5) [nM],IC50 (BMPR2) [nM],"CLint scaled [1, 2] [mL/min/kg]","CLint scaled [1, 3] [mL/min/kg]","Protein Binding (% Free) Mouse (Protein binding, mouse) [% Free]"
Cc1cc(-c2cnc3cc(-c4ccc(C5COC6(CCNCC6)CN5)cc4)ccn23)c2cc(F)cc(F)c2n1 (centres unmarked) [Compound 16],< 5.1,1140,> 100000,< 10.7,< 23.1,4.7
Cc1cc(-c2cnc3cc(-c4ccc(C5COCC(C)N5)cc4)ccn23)c2cc(F)cc(F)c2n1 (centres unmarked) [Compound 23],< 5.1,354,> 100000,17.5,139,2.85
Cc1cc(-c2cnc3cc(-c4ccc(C5COC6(CCNC6)CN5)cc4)ccn23)c2cc(F)cc(F)c2n1 (centres unmarked) [Compound 27],29.1,3290,> 100000,< 10.7,< 23.1,3.9
c1cnc2nccc(-c3cnc4cc(-c5ccc(C6CNCCN6)cc5)ccn34)c2c1 (centres unmarked) [Compound 32],16.5,310,54400,< 11,< 23.1,33.9
c1cc(-c2cnc3cc(-c4ccc(C5CNCCN5)cc4)ccn23)c2cccnc2c1 (centres unmarked) [Compound 33],< 5.1,1140,> 100000,< 11,< 23.1,8.4

# Second part, the compound after the results:
IC50 (ALK2/ACVR1) [nM],IC50 (ALK5) [nM],IC50 (BMPR2) [nM],"CLint scaled [1, 2] [mL/min/kg]","CLint scaled [1, 3] [mL/min/kg]","Protein Binding (% Free) Mouse (Protein binding, mouse) [% Free]",SMILES
< 5.1,717,> 100000,,,,O=C1CNC(=O)C(c2ccc(-c3ccn4c(-c5cccc6ncccc56)cnc4c3)cc2)N1 (centres unmarked) [Compound 36]
14.6,456,> 100000,< 11,< 23.1,,NS(=O)(=O)c1ccc(-c2cnc3cc(-c4ccc(C5CNCCN5)cc4)ccn23)c2ccccc12 (centres unmarked) [Compound 37]
